Series [1] can be described thus: Evaluation of gelation of lipid peptides with pure water. In kind it is physicochemical. The procedure: Each of the lipid peptides synthesized in Examples 1, 6, 7, 8, and 10 was placed in a sample tube. Pure water (without metals and ions) was added so that a solution would have a lipid peptide concentration of 0.25 or 0.5% (w/v) (w means mass (g), and v means volume (mL)). The mixture was heated at 90° C. or more to dissolve the lipid peptide, and then allowed to cool.

A short description of series [2]: Evaluation of gelation of lipid peptides with phosphate buffer. In kind it is physicochemical. Here is the method: Each of the lipid peptides synthesized in Examples 3 to 10 and Example 14 was placed in a sample tube. Each of three phosphate buffers (PBS) (pH=2.6, 7.4, or 10) was added so that a solution would have a lipid peptide concentration of 0.25 or 0.5% (w/v) (conditions A to F). Then, the mixture was heated at 90° C. or more to dissolve the lipid peptide, and then allowed to cool.

[3] abbreviates: acidic region (pH=2.6), concentration 0.25%.
The mark [4] stands for this setting: acidic region (pH=2.6), concentration 0.5%.
Where [5] appears, read: condition A: phosphate buffer pH = 2.6, 0.5% (w/v).
[6] abbreviates: condition B: phosphate buffer pH = 2.6, 0.25% (w/v).
Setting [7] is: condition C: phosphate buffer pH-7.4, 0.5% (w/v).
Setting [8] is: condition D: phosphate buffer pH-7.4, 0.25% (w/v).
Where [9] appears, read: condition E: phosphate buffer pH = 10, 0.5% (w/v).

Each structure is given as a SMILES string. Residues, ends and D or L forms follow the SMILES beside them.

The values that follow come from US9289496B2, “Lipid dipeptide and gel” (Nissan Chemical Industries, Ltd., priority 2008, dated 2016).

Consider `CCCCCCCCCCCC(=O)NCC(=O)N[C@@H](Cc1c[nH]cn1)C(=O)O.O=C(O)C(F)(F)F` [Example 6, N-Lauroyl-Gly-His.TFA Salt] (HELM PEPTIDE1{[CCCCCCCCCCCC(=O)[*:2]].G.H}$$$$V2.0), for which the Gelation entry in series [1] (lipid peptide 0.25% (w/v)), in series [1] (lipid peptide 0.50% (w/v)), in series [2] (setting [5]), in series [2] (setting [6]), in series [2] (setting [7]) and in series [2] (setting [8]) was “◯” each time. Also, the Gelation entry in series [2] (setting [9]) is “◯”; in series [2] (condition F: phosphate buffer pH = 10, 0.25% (w/v)) it was “◯”. Besides, the “Gel formation” value in series [2] (setting [3]) is listed as “formed gels”; in series [2] (setting [4]) it was “formed gels”; in series [2] (basic region (pH=10), concentration 0.25%), “formed a gel”.
As to `CCCCCCCCCCCCCCCCCCCCCC(=O)NCC(=O)N[C@@H](Cc1c[nH]cn1)C(=O)O.O=C(O)C(F)(F)F` [Example 7, N-Behenoyl-Gly-His.TFA Salt], the Gelation entry in series [1] (lipid peptide 0.25% (w/v)), in series [1] (lipid peptide 0.50% (w/v)), in series [2] (setting [5]), in series [2] (setting [7]), in series [2] (setting [8]) and in series [2] (setting [9]) was “◯” throughout. In addition, the “Gel formation” value in series [2] (setting [4]) is “formed gels”.
For the compound `CCCCCCCCCCCCCC(=O)NCC(=O)N[C@@H](Cc1c[nH]cn1)C(=O)O.O=C(O)C(F)(F)F` [Example 8, N-Myristoyl-Gly-His.TFA Salt] (HELM PEPTIDE1{[CCCCCCCCCCCCCC(=O)[*:2]].G.H}$$$$V2.0), the Gelation entry in series [1] (lipid peptide 0.25% (w/v)), in series [1] (lipid peptide 0.50% (w/v)), in series [2] (setting [5]), in series [2] (setting [6]), in series [2] (setting [7]) and in series [2] (setting [8]) was “◯” in each case. For the same compound, the Gelation entry in series [2] (setting [9]) was “◯”. In addition, the “Gel formation” value in series [2] (setting [3]) and in series [2] (setting [4]) was “formed gels” throughout.
`CCCCCCCCCCCCCCCC(=O)N[C@@H](C)C(=O)N[C@@H](Cc1c[nH]cn1)C(=O)O.O=C(O)C(F)(F)F` [Example 10, N-Palmitoyl-Ala-His.TFA salt] (HELM PEPTIDE1{[CCCCCCCCCCCCCCCC(=O)[*:2]].A.H}$$$$V2.0): the Gelation result in series [1] (lipid peptide 0.25% (w/v)), in series [1] (lipid peptide 0.50% (w/v)), in series [2] (setting [5]), in series [2] (setting [6]), in series [2] (setting [7]) and in series [2] (setting [8]) was “◯” in each case. Also, the Gelation result in series [2] (setting [9]) is “◯”. The “Gel formation” value in series [2] (setting [3]) and in series [2] (setting [4]) was “formed gels” in each case.
Take `CCCCCCCCCCCCCCCC(=O)N[C@H](C(=O)N[C@@H](Cc1c[nH]cn1)C(=O)O)C(C)C.O=C(O)C(F)(F)F` [Example 11, N-Palmitoyl-Val-His.TFA Salt] (HELM PEPTIDE1{[CCCCCCCCCCCCCCCC(=O)[*:2]].V.H}$$$$V2.0): the Gelation result in series [2] (setting [7]), in series [2] (setting [8]) and in series [2] (setting [9]) was “◯” in each case.
In the case of `CCCCCCCCCCCCCCCC(=O)N[C@@H](Cc1c[nH]cn1)C(=O)NCC(=O)O.O=C(O)C(F)(F)F` [Example 14, N-Palmitoyl-His-Gly.TFA Salt] (HELM PEPTIDE1{[CCCCCCCCCCCCCCCC(=O)[*:2]].H.G}$$$$V2.0), the Gelation result in series [2] (setting [7]), in series [2] (setting [8]) and in series [2] (setting [9]) was “◯” throughout.
